Data from ChEMBL document CHEMBL4665918, “Discovery of PEGylated 6-Benzhydryl-4-amino-quinazolines as Peripherally Restricted CBR Inverse Agonists” (ACS Med Chem Lett, 2020).
Activity calls are given as the source filed them. No cut-off for these calls is given here.

Tests used:
Cannabinoid receptor 1 = Cannabinoid receptor 1 (Homo sapiens, UniProt P21554); assay: Inverse agonist activity at human CB1 receptor expressed in HEK293 cells assessed as forskolin-stimulated cAMP accumulation after 30 mins by HTRF assay; assay type: functional, cell-based
Cannabinoid receptor 1, sequence (P21554 whole entry): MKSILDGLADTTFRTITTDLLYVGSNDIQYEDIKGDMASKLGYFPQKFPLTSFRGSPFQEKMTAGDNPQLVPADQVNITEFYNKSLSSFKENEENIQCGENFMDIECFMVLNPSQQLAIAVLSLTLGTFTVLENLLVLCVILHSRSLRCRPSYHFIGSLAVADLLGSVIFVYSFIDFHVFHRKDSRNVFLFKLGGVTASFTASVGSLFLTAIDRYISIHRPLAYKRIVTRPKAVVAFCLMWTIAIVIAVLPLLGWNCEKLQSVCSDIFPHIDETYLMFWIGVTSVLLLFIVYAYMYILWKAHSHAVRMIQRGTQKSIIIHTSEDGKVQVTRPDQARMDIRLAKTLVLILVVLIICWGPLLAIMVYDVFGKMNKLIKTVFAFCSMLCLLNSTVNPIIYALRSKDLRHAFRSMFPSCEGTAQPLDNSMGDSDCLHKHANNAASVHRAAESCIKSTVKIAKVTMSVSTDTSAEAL

Homo sapiens = species: Homo sapiens; assay: Selectivity index, ratio of EC50 for human CB2 receptor expressed in HEK293 cells to EC50 for human CB1 receptor expressed in HEK293 cells; assay type: cell-based
[1] = Ratio of drug level in brain to plasma in C57BL/6J mouse at 20 mg/kg, po measured after 4 hr; assay type: ADME, organism-based; conditions: brain and plasma
[2] = Ratio of drug level in brain to plasma in C57BL/6J mouse at 20 mg/kg, po measured after 1 hr; assay type: ADME, organism-based; conditions: brain and plasma
Mus musculus = assay: In vivo inverse agonist activity at CB1 receptor in C57 mouse assessed as reduction in CP55940-induced inhibition of upper gastrointestinal motility at 10 mg/kg, po after 2 hrs; assay type: functional, organism-based

Row | Structure (SMILES) | EC50 (Cannabinoid receptor 1) [nM] | Ratio EC50 (Homo sapiens) | Kp at 1 h [1] | Kp at 1 h [2] | Activity (Mus musculus)
1 | O=S(=O)(N1CCC(Nc2ncnc3ccc(C(c4ccc(Cl)cc4)c4ccc(Cl)cc4)cc23)CC1)C(F)(F)F | 4.6 | 170 | 0.08 | 0.02 | 
2 | Cc1c(C(=O)NN2CCCCC2)nn(-c2ccc(Cl)cc2Cl)c1-c1ccc(Cl)cc1 |  |  |  |  | Active
3 | O=C(NC(CO)(CO)CO)c1ccc(S(=O)(=O)N2CCC(Nc3ncnc4ccc(C(c5ccc(Cl)cc5)c5ccc(Cl)cc5)cc34)CC2)cc1 | 7.8 |  |  |  | 
